# Measured values from PMC8026324, “In Vitro Antiplasmodial, Heme Polymerization, and Cytotoxicity of Hydroxyxanthone Derivatives” (Journal of Tropical Medicine, 2021).
# Legend:
# heme polymerization = test system: heme polymerization; set-up: method as in PMID 9199506; conditions: cited from earlier work
# [1] = test system: P. falciparum strain 3D-7; set-up: method as in doi:10.22159/ajpcr.2017.v10i12.19858; conditions: cited from earlier work; for IC50: read-out: antiplasmodial IC50 on P. falciparum strain 3D-7
# [2] = test system: Plasmodium falciparum FCR-3 (chloroquine-resistant strain); test: In vitro antiplasmodial activity assay, microscopic method, strain FCR-3; type: cell-based; conditions: for IC50: 72 hours incubation, microscopic method, read-out: IC50 on P. falciparum FCR-3; for antiplasmodial activity category on P. falciparum FCR-3: category by IC50
# Description: (§1) The test of antiplasmodial activity began with the culture of P. falciparum 3D-7 and FCR-3 using the modified Trager and Jensen method. The plasmodium was cultured in human O red blood cells diluted to 3% haematocrit in RPMI 1640 medium complemented with 10% human O serum. The medium was made by adding 10.43 g of powder RPMI 1640, 6 g HEPES, 2 g NaHCO3, 25 mg gentamycin, and sterile distilled water up to 1 L. The medium pH was adjusted so that it reached ±7.2. It was sterilized using a 0.22 μm filter and stored at 4°C. The complete plasmodium culture medium was made by adding human serum with a concentration of 10% in the medium. The plasmodium culture was incubated in candle jar in an incubator with a temperature of 37°C and was observed every 24 hours.
# (§2) The plasmodium was synchronized to obtain the ring stage by adding 5% of D-sorbitol. The plasmodium was transferred from culture flask to a conical tube, and then it was centrifuged with a speed of 1000 rpm for 10 minutes. After the supernatant was disposed, the sterile 5% sorbitol was added and incubated for 10 minutes at a temperature of 37°C. The plasmodium suspension was centrifuged again; the supernatant was disposed and the plasmodium was washed by adding culture medium. Then, the plasmodium suspension was centrifuged again, and the supernatant was discarded, resulting in a plasmodium in ring stage only. The parasitemia was calculated from a thin blood preparation. The test used 1% parasitemia at 2% haematocrit in RPMI medium which complemented with 10% human O serum.
# (§3) Each testing compound was dissolved in RPMI medium. The testing compound in various concentrations with volume of 100 μL was incorporated into the 96-well microplate, and then 100 μL of Plasmodium suspension was added. Each series of concentrations was replicated three times. The microplate was incubated at a temperature of 37°C for 72 hours. At the end of the incubation, a thin blood smear was made using 10% Giemsa stain and observed under a light microscope at 1000x magnification. The percentage of parasitemia (counting a minimum of 1,000 erythrocytes) was calculated from the preparation of thin blood and then used to calculate the percentage of plasmodium growth inhibition. […] Antiplasmodial activity is expressed as IC50, which is the concentration of a compound that is required for 50% inhibition of plasmodium growth. The IC50 value was calculated by probit analysis using SPSS software (IBM Corp., Chicago). The lower the IC50 value obtained, the greater the antiplasmodial activity.
# Vero cells = test: In vitro cytotoxicity test, MTT assay on Vero cell line; type: cell-based; conditions: for IC50: MTT assay; for Selectivity index 3D-7: ratio IC50 on Vero cell/IC50 on P. falciparum 3D-7; for Selectivity index FCR-3: ratio IC50 on Vero cell/IC50 on P. falciparum FCR-3
# Description: The in vitro cytotoxicity test was conducted using the 3-(4,5-dimethylthiazol-2-yl)2,5-diphenyltetrazolium bromide (MTT) assay method on Vero cell line culture using the Anderson et al.'s modified method.
# The cell was removed from the cryo medium. Then, the cell was thawed at 37°C. The liquid cell was subsequently transferred to the tube and a culture medium was added to a volume of 10 mL. Then, the suspension was centrifuged for 15 minutes so that it would form cell pellets. The supernatant was removed and 1 mL of culture medium was added to the cell pellets. Finally, the suspension was transferred to the Petri dish and incubated in the incubator with 5% of CO2 at 37°C.
# The medium of Vero cell culture was removed, and then the cell was washed using a PBS solution with a volume of PBS ± 1/2 of the initial medium volume. This step was done twice and 1 mL of trypsin 0.25% was added. Subsequently, the cell was incubated in the CO2 incubator at 37°C for 3 minutes. Then, the cell was resuspended using 2 mL of culture medium and PBS solution was added up to 10 mL. The suspension was centrifuged for 15 minutes so that it formed pellets. Pellets were added with 1 mL of culture medium and resuspended. Take 10 μL of the cell suspension and density of cells was calculated.
# Then, the cell was added with culture medium to 10 mL. A total of 100 μL of such suspensions was transferred into each well of the 96-well microplate, but three of the wells were emptied as medium controls. Subsequently, the microplate was incubated in a 5% CO2 incubator at 37°C.
# Each hydroxyxanthone derivative compound was dissolved in DMSO, and a variety of concentrations were prepared in the medium. Each concentration of the testing compound was added into the 96-well microplate triplicately. Cell control and medium control were not given a testing compound solution. The medium control remained blank, while the cell control contained culture medium only. […] Then, the cell was incubated in a 5% CO2 incubator at 37°C for 24 hours.
# After the cell was incubated for 24 hours, the medium was discarded and washed with PBS. Then, each well was added with 100 μL of 5 mg/mL of MTT solution. The 96-well microplate was incubated again in the incubator of CO2 at 37°C for 4 hours. Then, 100 μL of 10% of SDS in 0.01 MHCl was added. The cells were placed in a dark room at room temperature for 24 hours.
# The absorbance was measured using the enzyme-linked immunosorbent assay (ELISA) reader at 595 nm wavelength. The cytotoxicity test on the Vero cells was done by calculating the percentage of Vero cell inhibition of the absorption value of the test compound, cell control, and medium control. The cytotoxic effect was expressed as IC50. The IC50 value was obtained from the probit analysis by using SPSS software (IBM Corp., Chicago). The degree of selectivity was expressed as a selectivity index. The selectivity index was obtained from the ratio between the IC50 cytotoxic effect on Vero cells and IC50 antiplasmodial activity on Plasmodium. A compound is said to be safe if the value of the selectivity index is >10 [20].
# WIDR = test system: WIDR; set-up: method as in earlier work; conditions: cited from earlier work
# MCF-7 = test system: MCF-7; set-up: method as in earlier work; conditions: cited from earlier work
# Hela = test system: Hela; set-up: method as in earlier work; conditions: cited from earlier work
# [3] = test system: Plasmodium falciparum 3D-7 (chloroquine-sensitive strain); test: In vitro antiplasmodial activity assay, microscopic method, strain 3D-7; type: cell-based; conditions: for IC50: 72 hours incubation, microscopic method, read-out: IC50 on P. falciparum 3D-7; for antiplasmodial activity category on P. falciparum 3D-7: category by IC50
# Description: as §1, §2, §3
# [4] = Chlorocebus sabaeus, Vero, 24 h, 24 hours incubation
compound,measurement,setting,value
pentametoxyxanthone,heme polymerization inhibitory activity (in words),heme polymerization,inactive
pentaacetylxanthone,heme polymerization inhibitory activity (in words),heme polymerization,inactive
O=c1c2ccccc2oc2ccc(O)cc12 [2-hydroxyxanthone],antiplasmodial IC50,[1],4.385 µg/mL
same,IC50,[1],20.7 µM
"O=c1c2ccc(O)cc2oc2cccc(O)c12 [HX2, 1,6-dihydroxyxanthone]",inhibition at 54.78 µM,"[2]; Plasmodium falciparum, FCR3, 54.78 μM, read-out: Growth inhibition of P. falciparum Strain FCR-3",47.2 ± 0.687%
same,inhibition at 109.55 µM,"[2]; Plasmodium falciparum, FCR3, 109.55 μM, read-out: Growth inhibition of P. falciparum Strain FCR-3",50.2 ± 2.63%
same,inhibition at 219.11 µM,"[2]; Plasmodium falciparum, FCR3, 219.11 μM, read-out: Growth inhibition of P. falciparum Strain FCR-3",67.1 ± 2.76%
same,inhibition at 438.21 µM,"[2]; Plasmodium falciparum, FCR3, 438.21 μM, read-out: Growth inhibition of P. falciparum Strain FCR-3",74.2 ± 1.32%
same,inhibition at 876.42 µM,"[2]; Plasmodium falciparum, FCR3, 876.42 μM, read-out: Growth inhibition of P. falciparum Strain FCR-3",87.6 ± 2.24%
same,IC50,"[2]; Plasmodium falciparum, FCR3",81.8 ± 5.78 µM
same,antiplasmodial activity category on P. falciparum FCR-3,[2],moderate (moderate (IC50 20–100 μM))
same,IC50,Vero cells; 24 hours incubation,308 µM
same,IC50,Vero cells; [4],390 µM
same,inhibition at 54.13 µM,"Vero cells; Chlorocebus sabaeus, Vero, 24 h, 54.13 μM, read-out: Vero cell growth inhibition after 24 hours incubation",15.6%
same,inhibition at 108.26 µM,"Vero cells; Chlorocebus sabaeus, Vero, 24 h, 108.26 μM, read-out: Vero cell growth inhibition after 24 hours incubation",31.8%
same,inhibition at 216.86 µM,"Vero cells; Chlorocebus sabaeus, Vero, 24 h, 216.86 μM, read-out: Vero cell growth inhibition after 24 hours incubation",38.9%
same,inhibition at 433.73 µM,"Vero cells; Chlorocebus sabaeus, Vero, 24 h, 433.73 μM, read-out: Vero cell growth inhibition after 24 hours incubation",59.8%
same,inhibition at 867.45 µM,"Vero cells; Chlorocebus sabaeus, Vero, 24 h, 867.45 μM, read-out: Vero cell growth inhibition after 24 hours incubation",67%
same,inhibition at 1734.91 µM,"Vero cells; Chlorocebus sabaeus, Vero, 24 h, 1734.91 μM, read-out: Vero cell growth inhibition after 24 hours incubation",86.1%
same,IC50,"Vero cells; Chlorocebus sabaeus, Vero",88.9 µg/mL
same,Selectivity index 3D-7,Vero cells,4.30
same,Selectivity index FCR-3,Vero cells,3.77
same,cytotoxicity on WIDR (in words),WIDR,weak
same,cytotoxicity on MCF-7 (in words),MCF-7,weak
same,cytotoxicity on Hela (in words),Hela,weak
same,inhibition at 54.78 µM,"[3]; Plasmodium falciparum, 54.78 μM, read-out: Growth inhibition of P. falciparum Strain 3D-7",49.2 ± 1.61%
same,inhibition at 109.55 µM,"[3]; Plasmodium falciparum, 109.55 μM, read-out: Growth inhibition of P. falciparum Strain 3D-7",54.8 ± 2.43%
same,inhibition at 219.11 µM,"[3]; Plasmodium falciparum, 219.11 μM, read-out: Growth inhibition of P. falciparum Strain 3D-7",67.16 ± 0.601%
same,inhibition at 438.21 µM,"[3]; Plasmodium falciparum, 438.21 μM, read-out: Growth inhibition of P. falciparum Strain 3D-7",73.62 ± 0.713%
same,inhibition at 876.42 µM,"[3]; Plasmodium falciparum, 876.42 μM, read-out: Growth inhibition of P. falciparum Strain 3D-7",90.56 ± 0.665%
same,IC50,[3]; Plasmodium falciparum,71.78 ± 0.31 µM
same,antiplasmodial activity category on P. falciparum 3D-7,[3],moderate (moderate (IC50 20–100 μM))
"O=c1c2cc(O)ccc2oc2ccc(O)cc12 [2,7-dihydroxyxanthone]",IC50,[1],1.34 µM
"O=c1c2ccc(O)c(O)c2oc2cccc(O)c12 [HX3, 1,5,6-trihydroxyxanthone]",inhibition at 25.59 µM,"[2]; Plasmodium falciparum, FCR3, 25.59 μM, read-out: Growth inhibition of P. falciparum Strain FCR-3",38.3 ± 1.19%
same,inhibition at 51.19 µM,"[2]; Plasmodium falciparum, FCR3, 51.19 μM, read-out: Growth inhibition of P. falciparum Strain FCR-3",43.13 ± 0.126%
same,inhibition at 102.38 µM,"[2]; Plasmodium falciparum, FCR3, 102.38 μM, read-out: Growth inhibition of P. falciparum Strain FCR-3",51.92 ± 0.466%
same,inhibition at 204.75 µM,"[2]; Plasmodium falciparum, FCR3, 204.75 μM, read-out: Growth inhibition of P. falciparum Strain FCR-3",71.9 ± 7.84%
same,inhibition at 409.5 µM,"[2]; Plasmodium falciparum, FCR3, 409.5 μM, read-out: Growth inhibition of P. falciparum Strain FCR-3",83 ± 1.4%
same,IC50,"[2]; Plasmodium falciparum, FCR3",64.1 ± 5.08 µM
same,antiplasmodial activity category on P. falciparum FCR-3,[2],moderate (moderate (IC50 20–100 μM))
same,IC50,Vero cells; 24 hours incubation,224 µM
same,IC50,Vero cells; [4],230 µM
same,inhibition at 63.88 µM,"Vero cells; Chlorocebus sabaeus, Vero, 24 h, 63.88 μM, read-out: Vero cell growth inhibition after 24 hours incubation",20.7%
same,inhibition at 127.76 µM,"Vero cells; Chlorocebus sabaeus, Vero, 24 h, 127.76 μM, read-out: Vero cell growth inhibition after 24 hours incubation",39.6%
same,inhibition at 255.94 µM,"Vero cells; Chlorocebus sabaeus, Vero, 24 h, 255.94 μM, read-out: Vero cell growth inhibition after 24 hours incubation",55.7%
same,inhibition at 511.88 µM,"Vero cells; Chlorocebus sabaeus, Vero, 24 h, 511.88 μM, read-out: Vero cell growth inhibition after 24 hours incubation",68%
same,inhibition at 1023.75 µM,"Vero cells; Chlorocebus sabaeus, Vero, 24 h, 1023.75 μM, read-out: Vero cell growth inhibition after 24 hours incubation",79.9%
same,inhibition at 2047.5 µM,"Vero cells; Chlorocebus sabaeus, Vero, 24 h, 2047.50 μM, read-out: Vero cell growth inhibition after 24 hours incubation",88.9%
same,IC50,"Vero cells; Chlorocebus sabaeus, Vero",56.2 µg/mL
same,Selectivity index 3D-7,Vero cells,8.12
same,Selectivity index FCR-3,Vero cells,3.50
same,cytotoxicity on WIDR (in words),WIDR,weak
same,cytotoxicity on MCF-7 (in words),MCF-7,weak
same,cytotoxicity on Hela (in words),Hela,weak
same,inhibition at 25.59 µM,"[3]; Plasmodium falciparum, 25.59 μM, read-out: Growth inhibition of P. falciparum Strain 3D-7",47.3 ± 0.611%
same,inhibition at 51.19 µM,"[3]; Plasmodium falciparum, 51.19 μM, read-out: Growth inhibition of P. falciparum Strain 3D-7",63.4 ± 0.421%
same,inhibition at 102.38 µM,"[3]; Plasmodium falciparum, 102.38 μM, read-out: Growth inhibition of P. falciparum Strain 3D-7",68.89 ± 0.151%
same,inhibition at 204.75 µM,"[3]; Plasmodium falciparum, 204.75 μM, read-out: Growth inhibition of P. falciparum Strain 3D-7",80.92 ± 0.679%
same,inhibition at 409.5 µM,"[3]; Plasmodium falciparum, 409.5 μM, read-out: Growth inhibition of P. falciparum Strain 3D-7",87.4 ± 1.15%
same,IC50,[3]; Plasmodium falciparum,27.64 ± 0.19 µM
same,antiplasmodial activity category on P. falciparum 3D-7,[3],moderate (moderate (IC50 20–100 μM))
